Test results: ChEMBL document CHEMBL1144301, “Non-peptidic small molecule inhibitors of XIAP” (Bioorg Med Chem Lett, 2005)
pKd: −log10 of the molar value.

Target: E3 ubiquitin-protein ligase XIAP (Homo sapiens, UniProt P98170)
Assay: Dissociation constant against BIR3 domain of X-linked IAP in fluorescence polarization anisotropy competition assay

Chain of E3 ubiquitin-protein ligase XIAP (P98170 whole entry, the tested form may be a part): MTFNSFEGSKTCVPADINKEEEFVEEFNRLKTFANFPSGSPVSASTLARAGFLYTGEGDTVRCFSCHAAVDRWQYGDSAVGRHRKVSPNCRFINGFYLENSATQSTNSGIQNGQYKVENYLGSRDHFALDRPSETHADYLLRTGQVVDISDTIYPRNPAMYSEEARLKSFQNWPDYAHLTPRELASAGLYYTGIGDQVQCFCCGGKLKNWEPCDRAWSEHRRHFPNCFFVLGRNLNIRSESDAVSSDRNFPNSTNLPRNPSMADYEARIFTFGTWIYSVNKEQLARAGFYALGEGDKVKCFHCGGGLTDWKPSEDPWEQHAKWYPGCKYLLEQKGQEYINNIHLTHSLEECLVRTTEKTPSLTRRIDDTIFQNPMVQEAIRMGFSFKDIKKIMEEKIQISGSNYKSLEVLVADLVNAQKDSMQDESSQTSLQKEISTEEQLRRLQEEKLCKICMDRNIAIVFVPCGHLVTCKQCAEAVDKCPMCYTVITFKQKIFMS

C[C@H](N)C(=O)Nc1nc(-c2cccc(Cc3ccccc3)c2)c(Cc2ccccc2)s1
pKd: < 4.00
